The values that follow are results of earlier work, collected in article PMC7395068, “The evolution of strategies to minimise the risk of human drug-induced liver injury (DILI) in drug discovery and development” (Archives of Toxicology, 2020).

Data set [1] relates to primary human hepatocytes, NIH3T3 fibroblasts, BSEP, CYP3A4. The note with it: cited from earlier work.
The conditions of data set [2]: ref Chen 2016; cited from earlier work.
The conditions of data set [3]: cited from earlier work.
Setting [4] is: In vitro Assay, ref Schadt 2015.

Structures are written as SMILES. Where two headings read alike, the source gives them in different places.

`COCCCOc1cc(C[C@@H](C[C@H](N)[C@@H](O)C[C@H](C(=O)NCC(C)(C)C(N)=O)C(C)C)C(C)C)ccc1OC` [aliskiren]: in data set [1] (setting [4]), the “Cellular toxicity (3T3 cells)” value was “-VE”, the “Combined Assay” value is on record as “-VE”, the “GSH adduct HML” value is listed as “-VE” and the Hepatocyte cellular toxicity entry is listed as “-VE”. Moreover, in data set [1] (setting [4]), the “MitoTox 3T3” value is “-VE”, the “TDI CYP3A4” value is “-VE” and the hBSEP inhibition entry is “-VE”.

Regarding `O=C1CCc2ccc(OCCCCN3CCN(c4cccc(Cl)c4Cl)CC3)cc2N1` [aripiprazole], in data set [2], the “DILI +VE (5-8), DILI -VE (-4)” value was “-VE” and the DILI severity category result is on record as “Ambiguous DILI-concern”. Moreover, in data set [1], the “Cellular toxicity (3T3 cells)” value is “-VE”, the “Combined Assay” value was “-VE”, the “GSH adduct HML” value is recorded as “-VE” and the Hepatocyte cellular toxicity result is listed as “-VE”. In data set [1], the “MitoTox 3T3” value is “-VE”, the “TDI CYP3A4” value is “-VE” and the hBSEP inhibition entry is “-VE”. The “In vivo DILI” value in data set [3] (ref Schadt 2015) is listed as “-VE”.

For `COC(=O)N[C@H](C(=O)N[C@@H](Cc1ccccc1)[C@@H](O)CN(Cc1ccc(-c2ccccn2)cc1)NC(=O)[C@@H](NC(=O)OC)C(C)(C)C)C(C)(C)C` [atazanavir], in data set [2], the “DILI +VE (5-8), DILI -VE (-4)” value was “+VE” and the DILI severity category result is given as “vLess-DILI-Concern”. Also, in data set [1] (setting [4]), the “Cellular toxicity (3T3 cells)” value is “+VE”, the “Combined Assay” value is recorded as “+VE”, the “GSH adduct HML” value is on record as “+VE” and the Hepatocyte cellular toxicity entry was “+VE”. In data set [1] (setting [4]), the “MitoTox 3T3” value is reported as “-VE”, the “TDI CYP3A4” value is listed as “-VE” and the hBSEP inhibition entry is given as “+VE”. Also, the “In vivo DILI” value in data set [3] (ref Schadt 2015) is on record as “+VE”.

Turning to `NCC(CC(=O)O)c1ccc(Cl)cc1` (stereo not shown) [baclofen], in data set [2], the “DILI +VE (5-8), DILI -VE (-4)” value is “+VE” and the DILI severity category result was “vLess-DILI-Concern”. In data set [1] (setting [4]), the “Cellular toxicity (3T3 cells)” value was “-VE”, the “Combined Assay” value is recorded as “-VE”, the “GSH adduct HML” value is reported as “-VE” and the Hepatocyte cellular toxicity entry was “-VE”. In addition, in data set [1] (setting [4]), the “MitoTox 3T3” value is “-VE”, the “TDI CYP3A4” value was “-VE” and the hBSEP inhibition result is “-VE”. Besides, the “In vivo DILI” value in data set [3] (ref Schadt 2015) was “-VE”.

For `CCCC1O[C@@H]2C[C@H]3[C@@H]4CCC5=CC(=O)C=C[C@]5(C)[C@H]4[C@@H](O)C[C@]3(C)[C@]2(C(=O)CO)O1` (stereo partly shown) [budesonide], in data set [2], the “DILI +VE (5-8), DILI -VE (-4)” value is “-VE” and the DILI severity category entry is listed as “vNo-DILI-Concern”. Further, in data set [1] (setting [4]), the “Cellular toxicity (3T3 cells)” value is reported as “+VE”, the “Combined Assay” value is recorded as “-VE”, the “GSH adduct HML” value was “+VE” and the Hepatocyte cellular toxicity entry is “+VE”. Moreover, in data set [1] (setting [4]), the “MitoTox 3T3” value is on record as “-VE”, the “TDI CYP3A4” value is reported as “-VE” and the hBSEP inhibition entry was “+VE”. In addition, the “In vivo DILI” value in data set [3] ([…]) is “-VE”. Moreover, the “In vivo DILI” value in data set [3] (ref Schadt 2015) is recorded as “-VE”.

In the case of `CCCC(C)(COC(N)=O)COC(=O)NC(C)C` (stereo not shown) [carisoprodol], in data set [2], the “DILI +VE (5-8), DILI -VE (-4)” value is “-VE” and the DILI severity category result is recorded as “vNo-DILI-Concern”. Besides, in data set [1], the “Cellular toxicity (3T3 cells)” value is “-VE”, the “Combined Assay” value is reported as “-VE”, the “GSH adduct HML” value is “-VE” and the Hepatocyte cellular toxicity entry was “-VE”. Moreover, in data set [1], the “MitoTox 3T3” value is “-VE”, the “TDI CYP3A4” value was “-VE” and the hBSEP inhibition result is “-VE”. Also, the “In vivo DILI” value in data set [3] (ref Schadt 2015) is given as “-VE”.

On to `CC[C@H]1OC(=O)[C@H](C)[C@@H](O[C@H]2C[C@@](C)(OC)[C@@H](O)[C@H](C)O2)[C@H](C)[C@@H](O[C@@H]2O[C@H](C)C[C@H](N(C)C)[C@H]2O)[C@](C)(OC)C[C@@H](C)C(=O)[C@H](C)[C@@H](O)[C@]1(C)O` [clarithromycin], for which, in data set [2], the “DILI +VE (5-8), DILI -VE (-4)” value was “+VE” and the DILI severity category entry is reported as “vMost-DILI-Concern”. Besides, in data set [1] (setting [4]), the “Cellular toxicity (3T3 cells)” value was “-VE”, the “Combined Assay” value was “+VE”, the “GSH adduct HML” value is “-VE” and the Hepatocyte cellular toxicity entry is reported as “-VE”. Moreover, in data set [1] (setting [4]), the “MitoTox 3T3” value was “+VE”, the “TDI CYP3A4” value is recorded as “-VE” and the hBSEP inhibition result is given as “-VE”. The “In vivo DILI” value in data set [3] ([…]) is listed as “-VE”. In addition, the “In vivo DILI” value in data set [3] (ref Schadt 2015) is “+VE”.

In the case of `O=C1CN=C(c2ccccc2Cl)c2cc([N+](=O)[O-])ccc2N1` [clonazepam], in data set [2], the “DILI +VE (5-8), DILI -VE (-4)” value is listed as “+VE” and the DILI severity category entry is reported as “vLess-DILI-Concern”. In data set [1], the “Cellular toxicity (3T3 cells)” value is given as “-VE”, the “Combined Assay” value is “-VE”, the “GSH adduct HML” value was “-VE” and the Hepatocyte cellular toxicity entry is recorded as “-VE”. Further, in data set [1], the “MitoTox 3T3” value was “-VE”, the “TDI CYP3A4” value is reported as “-VE” and the hBSEP inhibition entry is listed as “-VE”. Further, the “In vivo DILI” value in data set [3] (ref Schadt 2015) is reported as “-VE”.

Turning to `CN(C)CCC=C1c2ccccc2C=Cc2ccccc21` [cyclobenzaprine], in data set [2], the “DILI +VE (5-8), DILI -VE (-4)” value was “+VE” and the DILI severity category result is reported as “vLess-DILI-Concern”. Further, in data set [1] (setting [4]), the “Cellular toxicity (3T3 cells)” value was “+VE”, the “Combined Assay” value is recorded as “-VE”, the “GSH adduct HML” value is “-VE” and the Hepatocyte cellular toxicity entry is “-VE”. In data set [1] (setting [4]), the “MitoTox 3T3” value is recorded as “-VE”, the “TDI CYP3A4” value is reported as “-VE” and the hBSEP inhibition result is recorded as “-VE”. Besides, the “In vivo DILI” value in data set [3] (ref Schadt 2015) was “-VE”.

With `CCCCc1oc2ccc(NS(C)(=O)=O)cc2c1C(=O)c1ccc(OCCCN(CCCC)CCCC)cc1` [dronedaron], in data set [1] (setting [4]), the “Cellular toxicity (3T3 cells)” value was “+VE”, the “Combined Assay” value is listed as “-VE”, the “GSH adduct HML” value is on record as “-VE” and the Hepatocyte cellular toxicity entry is recorded as “-VE”. In data set [1] (setting [4]), the “MitoTox 3T3” value was “-VE”, the “TDI CYP3A4” value is given as “-VE” and the hBSEP inhibition result was “-VE”. The “In vivo DILI” value in data set [3] (ref Schadt 2015) was “+VE”.

As for `CN1c2c(oc(=O)n(-c3ccccn3)c2=O)-c2ccccc2S1(=O)=O` [droxicam], in data set [2], the “DILI +VE (5-8), DILI -VE (-4)” value was “+VE” and the DILI severity category entry is given as “vMost-DILI-Concern”. Besides, in data set [1] (setting [4]), the “Cellular toxicity (3T3 cells)” value is listed as “-VE”, the “Combined Assay” value is reported as “-VE”, the “GSH adduct HML” value is recorded as “-VE” and the Hepatocyte cellular toxicity entry was “-VE”. Moreover, in data set [1] (setting [4]), the “MitoTox 3T3” value is “-VE”, the “TDI CYP3A4” value is “-VE” and the hBSEP inhibition entry is “-VE”. The “In vivo DILI” value in data set [3] (ref Schadt 2015) was “+VE”.

Regarding `COC(=O)C1=C(C)NC(C)=C(C(=O)OC(C)C)C1c1cccc2nonc12` (stereo not shown) [isradipine], in data set [2], the “DILI +VE (5-8), DILI -VE (-4)” value is “+VE” and the DILI severity category entry is recorded as “vLess-DILI-Concern”. In data set [1] (setting [4]), the “Cellular toxicity (3T3 cells)” value was “+VE”, the “Combined Assay” value is reported as “-VE”, the “GSH adduct HML” value was “+VE” and the Hepatocyte cellular toxicity entry is recorded as “+VE”. In addition, in data set [1] (setting [4]), the “MitoTox 3T3” value is “-VE”, the “TDI CYP3A4” value is recorded as “-VE” and the hBSEP inhibition entry was “+VE”. The “In vivo DILI” value in data set [3] (ref Schadt 2015) is “-VE”.

Consider `Cc1ncc2n1-c1ccc(Cl)cc1C(c1ccccc1F)=NC2` [midazolam], for which, in data set [2], the “DILI +VE (5-8), DILI -VE (-4)” value is given as “-VE” and the DILI severity category result was “vNo-DILI-Concern”. Also, in data set [1], the “Cellular toxicity (3T3 cells)” value is on record as “-VE”, the “Combined Assay” value is “+VE”, the “GSH adduct HML” value is given as “+VE” and the Hepatocyte cellular toxicity entry was “+VE”. Besides, in data set [1], the “MitoTox 3T3” value is “+VE”, the “TDI CYP3A4” value was “-VE” and the hBSEP inhibition result is reported as “+VE”. Also, in data set [3] (ref Schadt 2015), the “In vivo DILI” value is “-VE”.

With `OC(CNCC(O)C1CCc2cc(F)ccc2O1)C1CCc2cc(F)ccc2O1` (stereo not shown) [nebivolol], in data set [2], the “DILI +VE (5-8), DILI -VE (-4)” value is “-VE” and the DILI severity category entry is “Ambiguous DILI-concern”. Also, in data set [1] (setting [4]), the “Cellular toxicity (3T3 cells)” value is on record as “-VE”, the “Combined Assay” value is “-VE”, the “GSH adduct HML” value is recorded as “-VE” and the Hepatocyte cellular toxicity entry is “-VE”. Also, in data set [1] (setting [4]), the “MitoTox 3T3” value was “-VE”, the “TDI CYP3A4” value was “-VE” and the hBSEP inhibition entry was “-VE”. In addition, the “In vivo DILI” value in data set [3] (ref Schadt 2015) is “-VE”.

With `CCCc1nc(C(C)(C)O)c(C(=O)O)n1Cc1ccc(-c2ccccc2-c2nnn[nH]2)cc1` [olmesartan], in data set [2], the “DILI +VE (5-8), DILI -VE (-4)” value was “-VE” and the DILI severity category entry is reported as “Ambiguous DILI-concern”. In data set [1] (setting [4]), the “Cellular toxicity (3T3 cells)” value is reported as “-VE”, the “Combined Assay” value is “-VE”, the “GSH adduct HML” value is recorded as “-VE” and the Hepatocyte cellular toxicity result is “-VE”. Moreover, in data set [1] (setting [4]), the “MitoTox 3T3” value is given as “-VE”, the “TDI CYP3A4” value is “-VE” and the hBSEP inhibition result is recorded as “-VE”. In addition, the “In vivo DILI” value in data set [3] ([…]) is recorded as “-VE”. Further, the “In vivo DILI” value in data set [3] (ref Schadt 2015) was “-VE”.

Take `CCOC(=O)COC1CCN(C(=O)[C@H](C)NC(=O)c2ccc(C(=N)NO)cc2)CC1` [sibrafiban]: in data set [1] (setting [4]), the “Cellular toxicity (3T3 cells)” value is “-VE”, the “Combined Assay” value is “-VE”, the “GSH adduct HML” value is given as “-VE” and the Hepatocyte cellular toxicity entry is reported as “-VE”. In data set [1] (setting [4]), the “MitoTox 3T3” value is “-VE”, the “TDI CYP3A4” value is recorded as “-VE” and the hBSEP inhibition result is on record as “-VE”. The “In vivo DILI” value in data set [3] (ref Schadt 2015) is recorded as “-VE”.

On to `CN1C(C(=O)Nc2nccs2)=C(O)c2ccccc2S1(=O)=O` [sudoxicam], for which, in data set [1], the “Cellular toxicity (3T3 cells)” value is reported as “-VE”, the “Combined Assay” value is “-VE”, the “GSH adduct HML” value is on record as “-VE” and the Hepatocyte cellular toxicity result is reported as “-VE”. For the same compound, in data set [1], the “MitoTox 3T3” value is “-VE”, the “TDI CYP3A4” value is reported as “-VE” and the hBSEP inhibition result is listed as “-VE”.
